Results published in ChEMBL document CHEMBL1139487, “Discovery of corticotropin releasing factor 2 receptor selective sauvagine analogues for treatment of skeletal muscle atrophy” (J Med Chem, 2005).
Square brackets hold non-standard residues; d marks the D form. Peptide text beside a SMILES is read from it. 1Nal = N[C@@H](Cc1cccc2ccccc12)C(=O)O; pGlu = O=C1CC[C@@H](C(=O)O)N1

Tests used:
[1] = target: T1, Corticotropin-releasing factor receptor 1 (Mus musculus) (UniProt P35347); experiment: In vitro agonistic activity against mouse corticotropin releasing factor 1 receptor; assay type: functional
T1 sequence (whole entry): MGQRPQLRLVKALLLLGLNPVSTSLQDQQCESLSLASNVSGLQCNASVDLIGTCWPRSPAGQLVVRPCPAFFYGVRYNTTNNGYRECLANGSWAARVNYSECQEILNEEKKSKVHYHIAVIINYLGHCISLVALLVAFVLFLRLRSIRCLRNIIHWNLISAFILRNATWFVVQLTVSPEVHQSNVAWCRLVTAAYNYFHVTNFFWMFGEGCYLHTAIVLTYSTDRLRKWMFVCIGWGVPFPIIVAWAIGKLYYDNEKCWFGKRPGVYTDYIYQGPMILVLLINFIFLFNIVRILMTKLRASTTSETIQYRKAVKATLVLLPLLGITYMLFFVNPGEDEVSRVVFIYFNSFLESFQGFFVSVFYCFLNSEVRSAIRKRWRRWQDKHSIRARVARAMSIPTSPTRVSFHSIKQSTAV

[2] = target: Corticotropin-releasing factor receptor 2 (Mus musculus) (UniProt Q60748); experiment: In vitro agonistic activity against mouse corticotropin releasing factor 2 receptor; assay type: functional
Mus musculus = species: Mus musculus; experiment: Selectivity ratio of EC50s for mouse corticotropin releasing factor receptors 1 and 2
[3] = target: T2, Corticotropin-releasing factor receptor 1 (Mus musculus, UniProt P35347); experiment: In vitro effective concentration for mouse corticotropin releasing factor 1 receptor
T2 sequence (P35347 whole entry): T1 sequence (whole entry)

[4] = target: Corticotropin-releasing factor receptor 2 (Mus musculus, UniProt Q60748); experiment: In vitro effective concentration for mouse corticotropin releasing factor 2 receptor
Corticotropin-releasing factor receptor 2, sequence (Q60748 whole entry): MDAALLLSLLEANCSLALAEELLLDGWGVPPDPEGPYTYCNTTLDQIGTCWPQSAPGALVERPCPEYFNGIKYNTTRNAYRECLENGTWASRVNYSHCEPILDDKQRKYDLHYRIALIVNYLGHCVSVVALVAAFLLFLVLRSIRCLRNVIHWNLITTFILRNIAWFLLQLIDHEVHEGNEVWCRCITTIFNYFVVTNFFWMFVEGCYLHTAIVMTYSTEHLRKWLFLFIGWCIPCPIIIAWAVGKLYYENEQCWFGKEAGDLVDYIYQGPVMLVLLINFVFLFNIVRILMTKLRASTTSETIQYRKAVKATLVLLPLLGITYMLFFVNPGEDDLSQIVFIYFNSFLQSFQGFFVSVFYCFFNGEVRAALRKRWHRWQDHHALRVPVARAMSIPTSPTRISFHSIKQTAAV

Corticotropin-releasing factor receptor 2 (Mus musculus), sequence (Q60748 whole entry): as above

Emax [1] | Emax [2] | Selectivity (Mus musculus) | EC50 [3] | EC50 [4] | Structure (SMILES)
100% | 100% | 26 |  |  | CC[C@H](C)[C@H](NC(=O)[C@@H](NC(=O)[C@H](CC(=O)O)NC(=O)[C@H](CC(C)C)NC(=O)[C@H](CC(C)C)NC(=O)[C@H](CC(C)C)NC(=O)[C@H](CCCN=C(N)N)NC(=O)[C@H](CC(N)=O)NC(=O)[C@H](CC(N)=O)NC(=O)[C@H](C)NC(=O)[C@H](C)NC(=O)[C@H](CCC(N)=O)NC(=O)[C@H](CCC(N)=O)NC(=O)[C@H](CCCCN)NC(=O)[C@H](CCC(=O)O)NC(=O)[C@H](CCCCN)NC(=O)[C@H](CCC(=O)O)NC(=O)[C@H](CCC(N)=O)NC(=O)[C@H](CCCCN)NC(=O)[C@H](CCC(=O)O)NC(=O)[C@@H](NC(=O)[C@H](CCC(=O)O)NC(=O)[C@@H](NC(=O)[C@H](CCSC)NC(=O)[C@H](CCCCN)NC(=O)[C@H](CCCN=C(N)N)NC(=O)[C@H](CC(C)C)NC(=O)[C@H](CC(C)C)NC(=O)[C@H](Cc1cccc2ccccc12)NC(=O)[C@H](CCC(N)=O)NC(=O)[C@@H]1CCCN1C(=O)[C@H](CC(C)C)NC(=O)[C@H](CC(=O)O)NC(=O)[C@@H](NC(=O)[C@H](CO)NC(=O)[C@@H](NC(=O)[C@@H]1CCCN1C(=O)[C@@H]1CCCN1C(=O)CNC(=O)[C@@H]1CCC(=O)N1)[C@@H](C)CC)[C@@H](C)CC)[C@@H](C)CC)[C@@H](C)CC)[C@@H](C)O)C(=O)O ([pGlu]GPPISIDLPQ[1Nal]LLRKMIEIEKQEKEKQQAANNRLLLDTI-OH)
79% | 73% | 16 |  |  | CC[C@H](C)[C@H](NC(=O)[C@@H](NC(=O)[C@H](CC(=O)O)NC(=O)[C@H](CC(C)C)NC(=O)[C@H](CC(C)C)NC(=O)[C@H](CC(C)C)NC(=O)[C@H](CCCN=C(N)N)NC(=O)[C@H](CC(N)=O)NC(=O)[C@H](CC(N)=O)NC(=O)[C@H](C)NC(=O)[C@H](C)NC(=O)[C@H](CCC(N)=O)NC(=O)[C@H](CCC(N)=O)NC(=O)[C@H](CCCCN)NC(=O)[C@H](CCC(=O)O)NC(=O)[C@H](CCCCN)NC(=O)[C@H](CCC(=O)O)NC(=O)[C@H](CCC(N)=O)NC(=O)[C@H](CCCCN)NC(=O)[C@H](CCC(=O)O)NC(=O)[C@@H](NC(=O)[C@H](CCC(=O)O)NC(=O)[C@@H](NC(=O)[C@H](CCSC)NC(=O)[C@H](CCCCN)NC(=O)[C@H](CCCN=C(N)N)NC(=O)[C@H](CC(C)C)NC(=O)[C@H](CC(C)C)NC(=O)[C@H](Cc1ccc(O)cc1)NC(=O)[C@H](CC(C)C)NC(=O)[C@@H]1CCCN1C(=O)[C@H](CC(C)C)NC(=O)[C@H](CC(=O)O)NC(=O)[C@@H](NC(=O)[C@H](CO)NC(=O)[C@@H](NC(=O)[C@@H]1CCCN1C(=O)[C@@H]1CCCN1C(=O)CNC(=O)[C@@H]1CCC(=O)N1)[C@@H](C)CC)[C@@H](C)CC)[C@@H](C)CC)[C@@H](C)CC)[C@@H](C)O)C(=O)O ([pGlu]GPPISIDLPLYLLRKMIEIEKQEKEKQQAANNRLLLDTI-OH)
86% | 94% | 15 |  |  | CC[C@H](C)[C@H](NC(=O)[C@@H](NC(=O)[C@H](CC(=O)O)NC(=O)[C@H](CC(C)C)NC(=O)[C@H](CC(C)C)NC(=O)[C@H](CC(C)C)NC(=O)[C@H](CCCN=C(N)N)NC(=O)[C@H](CC(N)=O)NC(=O)[C@H](CC(N)=O)NC(=O)[C@H](C)NC(=O)[C@H](C)NC(=O)[C@H](CCC(N)=O)NC(=O)[C@H](CCC(N)=O)NC(=O)[C@H](CCCCN)NC(=O)[C@H](CCC(=O)O)NC(=O)[C@H](CCCCN)NC(=O)[C@H](CCC(=O)O)NC(=O)[C@H](CCC(N)=O)NC(=O)[C@H](CCCCN)NC(=O)[C@H](CCC(=O)O)NC(=O)[C@@H](NC(=O)[C@H](CCC(=O)O)NC(=O)[C@@H](NC(=O)[C@H](CCSC)NC(=O)[C@H](CCCCN)NC(=O)[C@H](CCCN=C(N)N)NC(=O)[C@H](CC(C)C)NC(=O)[C@H](CC(C)C)NC(=O)[C@H](CC(C)C)NC(=O)[C@H](Cc1ccc(O)cc1)NC(=O)[C@@H]1CCCN1C(=O)[C@H](CC(C)C)NC(=O)[C@H](CC(=O)O)NC(=O)[C@@H](NC(=O)[C@H](CO)NC(=O)[C@@H](NC(=O)[C@@H]1CCCN1C(=O)[C@@H]1CCCN1C(=O)CNC(=O)[C@@H]1CCC(=O)N1)[C@@H](C)CC)[C@@H](C)CC)[C@@H](C)CC)[C@@H](C)CC)[C@@H](C)O)C(=O)O
100% | 99% | 47 |  |  | CC[C@H](C)[C@H](NC(=O)[C@@H](NC(=O)[C@H](CC(=O)O)NC(=O)[C@H](CC(C)C)NC(=O)[C@H](CC(C)C)NC(=O)[C@H](CC(C)C)NC(=O)[C@H](CCCN=C(N)N)NC(=O)[C@H](CC(N)=O)NC(=O)[C@H](CC(N)=O)NC(=O)[C@H](C)NC(=O)[C@H](C)NC(=O)[C@H](CCC(N)=O)NC(=O)[C@H](CCC(N)=O)NC(=O)[C@H](CCCCN)NC(=O)[C@H](CCC(=O)O)NC(=O)[C@H](CCCCN)NC(=O)[C@H](CCC(=O)O)NC(=O)[C@H](CCC(N)=O)NC(=O)[C@H](CCCCN)NC(=O)[C@H](CCC(=O)O)NC(=O)[C@@H](NC(=O)[C@H](CCC(=O)O)NC(=O)[C@@H](NC(=O)[C@H](CCSC)NC(=O)[C@H](CCCCN)NC(=O)[C@H](CCCN=C(N)N)NC(=O)[C@H](CC(C)C)NC(=O)[C@H](CC(C)C)NC(=O)[C@H](CCC(N)=O)NC(=O)[C@H](Cc1ccc(O)cc1)NC(=O)[C@@H]1CCCN1C(=O)[C@H](CC(C)C)NC(=O)[C@H](CC(=O)O)NC(=O)[C@@H](NC(=O)[C@H](CO)NC(=O)[C@@H](NC(=O)[C@@H]1CCCN1C(=O)[C@@H]1CCCN1C(=O)CNC(=O)[C@@H]1CCC(=O)N1)[C@@H](C)CC)[C@@H](C)CC)[C@@H](C)CC)[C@@H](C)CC)[C@@H](C)O)C(=O)O
99% | 82% | 14 |  |  | CC[C@H](C)[C@H](NC(=O)[C@@H](NC(=O)[C@H](CC(=O)O)NC(=O)[C@H](CC(C)C)NC(=O)[C@H](CC(C)C)NC(=O)[C@H](CC(C)C)NC(=O)[C@H](CCCN=C(N)N)NC(=O)[C@H](CC(N)=O)NC(=O)[C@H](CC(N)=O)NC(=O)[C@H](C)NC(=O)[C@H](C)NC(=O)[C@H](CCC(N)=O)NC(=O)[C@H](CCC(N)=O)NC(=O)[C@H](CCCCN)NC(=O)[C@H](CCC(=O)O)NC(=O)[C@H](CCCCN)NC(=O)[C@H](CCC(=O)O)NC(=O)[C@H](CCC(N)=O)NC(=O)[C@H](CCCCN)NC(=O)[C@H](CCC(=O)O)NC(=O)[C@@H](NC(=O)[C@H](CCC(=O)O)NC(=O)[C@@H](NC(=O)[C@H](CCSC)NC(=O)[C@H](CCCCN)NC(=O)[C@H](CCCN=C(N)N)NC(=O)[C@H](CC(C)C)NC(=O)[C@H](CC(C)C)NC(=O)CNC(=O)[C@H](CC(C)C)NC(=O)[C@@H]1CCCN1C(=O)[C@H](CC(C)C)NC(=O)[C@H](CC(=O)O)NC(=O)[C@@H](NC(=O)[C@H](CO)NC(=O)[C@@H](NC(=O)[C@@H]1CCCN1C(=O)[C@@H]1CCCN1C(=O)CNC(=O)[C@@H]1CCC(=O)N1)[C@@H](C)CC)[C@@H](C)CC)[C@@H](C)CC)[C@@H](C)CC)[C@@H](C)O)C(=O)O ([pGlu]GPPISIDLPLGLLRKMIEIEKQEKEKQQAANNRLLLDTI-OH)
99% | 93% | 15 |  |  | CC[C@H](C)[C@H](NC(=O)[C@@H](NC(=O)[C@H](CC(=O)O)NC(=O)[C@H](CC(C)C)NC(=O)[C@H](CC(C)C)NC(=O)[C@H](CC(C)C)NC(=O)[C@H](CCCN=C(N)N)NC(=O)[C@H](CC(N)=O)NC(=O)[C@H](CC(N)=O)NC(=O)[C@H](C)NC(=O)[C@H](C)NC(=O)[C@H](CCC(N)=O)NC(=O)[C@H](CCC(N)=O)NC(=O)[C@H](CCCCN)NC(=O)[C@H](CCC(=O)O)NC(=O)[C@H](CCCCN)NC(=O)[C@H](CCC(=O)O)NC(=O)[C@H](CCC(N)=O)NC(=O)[C@H](CCCCN)NC(=O)[C@H](CCC(=O)O)NC(=O)[C@@H](NC(=O)[C@H](CCC(=O)O)NC(=O)[C@@H](NC(=O)[C@H](CCSC)NC(=O)[C@H](CCCCN)NC(=O)[C@H](CCCN=C(N)N)NC(=O)[C@H](CC(C)C)NC(=O)[C@H](CC(C)C)NC(=O)[C@H](Cc1ccc(O)cc1)NC(=O)[C@H](Cc1ccc(O)cc1)NC(=O)[C@@H]1CCCN1C(=O)[C@H](CC(C)C)NC(=O)[C@H](CC(=O)O)NC(=O)[C@@H](NC(=O)[C@H](CO)NC(=O)[C@@H](NC(=O)[C@@H]1CCCN1C(=O)[C@@H]1CCCN1C(=O)CNC(=O)[C@@H]1CCC(=O)N1)[C@@H](C)CC)[C@@H](C)CC)[C@@H](C)CC)[C@@H](C)CC)[C@@H](C)O)C(=O)O
 |  |  | 312 nM | 21.6 nM | CC[C@H](C)[C@H](NC(=O)[C@@H](NC(=O)[C@H](CC(=O)O)NC(=O)[C@H](CC(C)C)NC(=O)[C@H](CC(C)C)NC(=O)[C@H](CC(C)C)NC(=O)[C@H](CCCNC(=N)N)NC(=O)[C@H](CC(N)=O)NC(=O)[C@H](CC(N)=O)NC(=O)[C@H](C)NC(=O)[C@H](C)NC(=O)[C@H](CCC(N)=O)NC(=O)[C@H](CCC(N)=O)NC(=O)[C@H](CCCCN)NC(=O)[C@H](CCC(=O)O)NC(=O)[C@H](CCCCN)NC(=O)[C@H](CCC(=O)O)NC(=O)[C@H](CCC(N)=O)NC(=O)[C@H](CCCCN)NC(=O)[C@H](CCC(=O)O)NC(=O)[C@@H](NC(=O)[C@H](CCC(=O)O)NC(=O)[C@@H](NC(=O)[C@H](CCSC)NC(=O)[C@H](CCCCN)NC(=O)[C@H](CCCNC(=N)N)NC(=O)[C@H](CC(C)C)NC(=O)[C@H](CC(C)C)NC(=O)CNC(=O)[C@H](CC(C)C)NC(=O)[C@@H]1CCCN1C(=O)[C@H](CC(C)C)NC(=O)[C@H](CC(=O)O)NC(=O)[C@@H](NC(=O)[C@H](CO)NC(=O)[C@@H](NC(=O)[C@@H]1CCCN1C(=O)[C@@H]1CCCN1C(=O)CNC(=O)[C@@H]1CCC(=O)N1)[C@@H](C)CC)[C@@H](C)CC)[C@@H](C)CC)[C@@H](C)CC)[C@@H](C)O)C(=O)O ([pGlu]GPPISIDLPLGLLRKMIEIEKQEKEKQQAANNRLLLDTI-OH)
